Where two headings read alike, the source gives them in different places.

The target in the test is Endothelial lipase (EL) (Homo sapiens (Human), UniProt Q9Y5X9). Put plainly: Endothelial lipase (EL) enzymatic assay with fluorescent substrate A10070 in DMPG vesicles. The format is biochemical. Here is the method:
Endothelial lipase (EL) and hepatic lipase (HL) activities were measured using a fluorescent substrate, A10070, (Invitrogen, CA) doped into an artificial vesicle containing DMPG (Avanti Polar Lipids) as the excipient. Vesicles were prepared by combining 571 μL of 29 mM DMPG in a 1:1 mixture of MeOH and CHCl3 with 2000 μL of 1 mM A10070 in a 1:1 mixture of MeOH and CHCl3. The mixture was dried under nitrogen in multiple vials then resuspended in 20 mL total volume of 50 mM HEPES pH 8.0 buffer containing 50 mM NaCl and 0.2 mM EDTA. The sample was allowed to sit at room temperature for 15 min and then was sonicated 3×4 mins on ice with a Branson Sonicator using duty cycle 1. This preparation provides vesicles with a mole fraction of 0.11 for the FRET substrate.
The enzymatic assay was measured using 384-well white Optiplates. Each well contained 20 μL of assay buffer (50 mM HEPES pH 8.0, 50 mM NaCl and 1 mM CaCl2) and 0.25 μL of a DMSO solution containing a compound of interest. EL or HL (10 μL) was added and allowed to incubate with the compound for 30 min at 37° C. The source of EL was conditioned media obtained from HT-1080 cells that were transformed using RAGE technology (Athersys) to overexpress endogenous EL, and HL was partially purified from conditioned media obtained from COS cells overexpressing HL. The reaction was started by the addition of 10 μL of a 1:10 dilution of vesicles. The final total reaction volume was […]. The reaction rates were measured on a Gemini plate reader with an excitation wavelength of 490 nm and an emission wavelength of 530 nm. Readings were taken over a period of 60 minutes, and the slope between 300 and 900 secs of the readout was used to calculate the rate of the reaction.

Where [1] appears, read: EL from conditioned media of HT-1080 cells, 30 min preincubation at 37° C.

Endothelial lipase (EL), sequence (Q9Y5X9 21-500): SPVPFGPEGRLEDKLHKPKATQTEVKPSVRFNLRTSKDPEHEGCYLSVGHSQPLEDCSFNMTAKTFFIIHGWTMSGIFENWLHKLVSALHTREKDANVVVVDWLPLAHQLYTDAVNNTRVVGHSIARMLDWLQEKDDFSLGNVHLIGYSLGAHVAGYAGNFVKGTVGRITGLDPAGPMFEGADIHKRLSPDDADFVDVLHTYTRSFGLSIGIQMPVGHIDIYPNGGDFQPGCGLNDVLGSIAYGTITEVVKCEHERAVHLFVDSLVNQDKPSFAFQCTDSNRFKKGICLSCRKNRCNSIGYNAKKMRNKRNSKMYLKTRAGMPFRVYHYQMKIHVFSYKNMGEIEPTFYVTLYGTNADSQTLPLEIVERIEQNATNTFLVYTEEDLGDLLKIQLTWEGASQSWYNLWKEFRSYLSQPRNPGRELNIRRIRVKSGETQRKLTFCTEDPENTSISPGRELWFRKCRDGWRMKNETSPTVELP

In the case of `CC(C)CS(=O)(=O)C(C(=O)NCC(=O)NC1CC1)c1nc2cc(F)c(-c3ccc(NC(=O)OCc4ccccc4)cc3)cc2s1` (centres unmarked) [Example 49, benzyl N-{4-[2-({[(cyclopropyl-carbamoyl)methyl]carbamoyl}(2-methylpropane-sulfonyl)methyl)-5-fluoro-1,3-benzothiazol-6-yl]phenyl}carbamate], the midpoint of inhibition, the IC50, lay at 3 nM.
Still for that read-out and setting: as for `O=C(CNC(=O)C(c1nc2cc(F)c(-c3ccc(NC(=O)OCc4ccccc4)cc3)cc2s1)S(=O)(=O)C1CC1)NC1CC1` (centres unmarked) [Example 50, benzyl N-(4-{2-[(cyclopropane-sulfonyl) ({[(cyclopropyl-carbamoyl)methyl]carbamoyl}methyl]-5-fluoro-1,3-benzothiazol-6-yl}phenyl) carbamate], the figure is 3 nM; as for `O=C(CNC(=O)C(c1nc2cc(F)c(-c3ccc(NC(=O)OCc4ccccc4)cc3)cc2s1)S(=O)(=O)CC1CC1)NC1CC1` (centres unmarked) [Example 51, benzyl N-{4-[2-({[(cyclopropyl-carbamoyl)methyl]carbamoyl} (cyclopropyl-methanesulfonyl)methyl)-5-fluoro-1,3-benzothiazol-6-yl]phenyl} carbamate], 3 nM; as for `CCCS(=O)(=O)C(C(=O)NCC(=O)NC1CC1)c1nc2cc(F)c(-c3ccc(NC(=O)OCc4ccccc4)cc3)cc2s1` (centres unmarked) [Example 52, benzyl N-{4-[2-({[(cyclopropyl-carbamoyl)methyl]carbamoyl} (propane-1-sulfonyl)methyl)-5-fluoro-1,3-benzothiazol-6-yl]phenyl} carbamate], 1 nM.
Same read-out and setting: as for `CCCCS(=O)(=O)C(C(=O)NCC(=O)NC1CC1)c1nc2cc(F)c(-c3ccc(NC(=O)OCc4ccccc4)cc3)cc2s1` (centres unmarked) [Example 53, benzyl N-(4-{2-[(butane-1-sulfonyl) ({[(cyclopropyl-carbamoyl)methyl]carbamoyl})methyl]-5-fluoro-1,3-benzothiazol-6-yl}phenyl) carbamate], the figure is 2 nM; as for `O=C(CNC(=O)C(c1nc2cc(F)c(-c3ccc(NC(=O)OCc4ccccc4)cc3)cc2s1)S(=O)(=O)CC1CCCCC1)NC1CC1` (centres unmarked) [Example 54, benzyl N-(4-{2-[cyclohexyl-methanesulfonyl ({[(cyclopropyl-carbamoyl)methyl]carbamoyl})methyl]-5-fluoro-1,3-benzothiazol-6-yl}phenyl) carbamate], 1 nM.
`O=C(CNC(=O)C(c1nc2ccc(-c3ccc(F)nc3)cc2s1)S(=O)(=O)Cc1ccccc1)NC1CC1` (centres unmarked) [Example 55, N-[(Cyclopropylcarbamoyl)methyl]-2-[6-(6-fluoropyridin-3-yl)-1,3-benzothiazol-2-yl]-2-phenylmethanesulfonylacetamide]: under setting [1], 26 nM corresponded to half-maximal inhibition (IC50).
Regarding `O=C(CNC(=O)C(c1nc2ccc(-c3ccc(F)nc3)cc2s1)S(=O)(=O)CCC(F)(F)F)NC1CC1` (centres unmarked) [Example 56, N-[(cyclopropyl-carbamoyl)methyl]-2-[6-(6-fluoropyridin-3-yl)-1,3-benzothiazol-2-yl]-2-(3,3,3-trifluoropropane-sulfonyl)acetamide], the IC50 (commonly the point on the concentration scale where inhibition reaches its midpoint) stood at 29 nM.
The same measure, in the same setting: under `CS(=O)(=O)C(C(=O)NCC(=O)NC1CC1)c1nc2ccc(-c3ccc(F)nc3)cc2s1` (centres unmarked) [Example 57, N-[(cyclopropyl-carbamoyl)methyl]-2-[6-(6-fluoropyridin-3-yl)-1,3-benzothiazol-2-yl]-2-methanesulfonyl-acetamide] stands 47 nM.
On the same count and under the same terms, under `C=CCS(=O)(=O)C(C(=O)NCC(=O)NC1CC1)c1nc2ccc(-c3ccc(F)nc3)cc2s1` (centres unmarked) [Example 59, N-[(cyclopropyl-carbamoyl)methyl]-2-[6-(6-fluoropyridin-3-yl)-1,3-benzothiazol-2-yl]-2-(prop-2-ene-1-sulfonyl) acetamide] stands 20 nM.
Take `COCCS(=O)(=O)C(C(=O)NCC(=O)NC1CC1)c1nc2ccc(-c3ccc(N(C)C(=O)OC(C)(C)C)cc3)cc2s1` (centres unmarked) [Example 60, tert-Butyl N-{4-[2-({[(cyclopropylcarbamoyl)methyl]carbamoyl}(2-methoxyethanesulfonyl)methyl)-1,3-benzothiazol-6-yl]phenyl}-N-methylcarbamate]: the IC50 under setting [1] turned out to be 3 nM.
`COCCS(=O)(=O)C(C(=O)NCC(=O)NC1CC1)c1nc2cc(-c3cccnc3C(F)(F)F)ccc2s1` (centres unmarked) [Example 61, N-[(cyclopropyl-carbamoyl)methyl]-2-(2-methoxyethane-sulfonyl)-2-{5-[2-(trifluoromethyl)pyridin-3-yl]-1,3-benzothiazol-2-yl}acetamide] showed an IC50 of 5 nM.
Still for that read-out and setting: under `COCCS(=O)(=O)C(C(=O)NCC(=O)NC1CC1)c1nc2cc(-c3cncc(Cl)c3)ccc2s1` (centres unmarked) [Example 62] stands 5 nM; under `COCCS(=O)(=O)C(C(=O)NCC(=O)NC1CC1)c1nc2cc(-c3ccnc(C(F)(F)F)c3)ccc2s1` (centres unmarked) [Example 63, N-[(cyclopropyl-carbamoyl)methyl]-2-(2-methoxyethane-sulfonyl)-2-{5-[2-(trifluoromethyl)pyridin-4-yl]-1,3-benzothiazol-2-yl}acetamide], 5 nM; under `COCCS(=O)(=O)C(C(=O)NCC(=O)NC1CC1)c1nc2cc(-c3cncc(OC)c3)ccc2s1` (centres unmarked) [Example 64, N-[(cyclopropyl-carbamoyl)methyl]-2-(2-methoxyethane-sulfonyl)-2-[5-(5-methoxypyridin-3-yl)-1,3-benzothiazol-2-yl]acetamide], 11 nM.
The same measure, in the same setting: under `COCCS(=O)(=O)C(C(=O)NCC(=O)NC1CC1)c1nc2cc(-c3ccc(C(F)(F)F)nc3)ccc2s1` (centres unmarked) [Example 66] stands 12 nM; under `COCCS(=O)(=O)C(C(=O)NCC(=O)NC1CC1)c1nc2cc(-c3cnnc(C)c3)ccc2s1` (centres unmarked) [Example 67, N-[(cyclopropyl-carbamoyl)methyl]-2-(2-methoxyethane-sulfonyl)-2-[5-(6-methylpyridazin-4-yl)-1,3-benzothiazol-2-yl]acetamide], 16 nM.
Take `COCCS(=O)(=O)C(C(=O)NCC(=O)NC1CC1)c1nc2cc(-c3ccc(F)nc3F)ccc2s1` (centres unmarked) [Example 68, N-[(cyclopropyl-carbamoyl)methyl]-2-[5-(2,6-difluoropyridin-3-yl)-1,3-benzothiazol-2-yl]-2-(2-methoxyethane-sulfonyl) acetamide]: the 50% inhibitory concentration (IC50) was determined as 19 nM.
Turning to `CCOc1ccc(-c2ccc3sc(C(C(=O)NCC(=O)NC4CC4)S(=O)(=O)CCOC)nc3c2)cn1` (centres unmarked) [Example 69, N-[(cyclopropyl-carbamoyl)methyl]-2-[5-(6-ethoxypyridin-3-yl)-1,3-benzothiazol-2-yl]-2-(2-methoxyethane-sulfonyl) acetamide], the IC50 amounted to 23 nM.
Consider `COCCS(=O)(=O)C(C(=O)NCC(=O)NC1CC1)c1nc2cc(-c3ccnc(C)c3)ccc2s1` (centres unmarked) [Example 70, N-[(cyclopropyl-carbamoyl)methyl]-2-(2-methoxyethane-sulfonyl)-2-[5-(2-methylpyridin-4-yl)-1,3-benzothiazol-2-yl]acetamide], for which the IC50 was determined as 24 nM.
Still for that read-out and setting: as for `COCCS(=O)(=O)C(C(=O)NCC(=O)NC1CC1)c1nc2cc(-c3ccc(N4CCCC4)nc3)ccc2s1` (centres unmarked) [Example 71, N-[(cyclopropyl-carbamoyl)methyl]-2-(2-methoxyethane-sulfonyl)-2-{5-[6-(pyaolidin-1-yl)pyridin-3-yl]-1,3-benzothiazol-2-yl} acetamide], the figure is 25 nM; as for `COCCS(=O)(=O)C(C(=O)NCC(=O)NC1CC1)c1nc2cc(-c3ccc(Cl)nc3)ccc2s1` (centres unmarked) [Example 72, 2-[5-(6-chloropyridin-3-yl)-1,3-benzothiazol-2-yl]-N-[(cyclopropyl-carbamoyl)methyl]-2-(2-methoxyethane-sulfonyl) acetamide], 25 nM; as for `COCCS(=O)(=O)C(C(=O)NCC(=O)NC1CC1)c1nc2cc(-c3ccncc3F)ccc2s1` (centres unmarked) [Example 73, N-[(cyclopropyl-carbamoyl)methyl]-2-[5-(3-fluoropyridin-4-yl)-1,3-benzothiazol-2-yl]-2-(2-methoxyethane-sulfonyl) acetamide], 28 nM.
As for `COCCS(=O)(=O)C(C(=O)NCC(=O)NC1CC1)c1nc2cc(-c3ccnc(OC)c3)ccc2s1` (centres unmarked) [Example 74, N-[(cyclopropyl-carbamoyl)methyl]-2-(2-methoxyethane-sulfonyl)-2-[5-(2-methoxypyridin-4-yl)-1,3-benzothiazol-2-yl]acetamide], the IC50 was 31 nM.
Still for that read-out and setting: under `COCCS(=O)(=O)C(C(=O)NCC(=O)NC1CC1)c1nc2cc(-c3cncc(F)c3)ccc2s1` (centres unmarked) [Example 75, N-[(cyclopropyl-carbamoyl)methyl]-2-[5-(5-fluoropyridin-3-yl)-1,3-benzothiazol-2-yl]-2-(2-methoxyethane-sulfonyl) acetamide] stands 31 nM; under `COCCS(=O)(=O)C(C(=O)NCC(=O)NC1CC1)c1nc2cc(-c3ccnc(F)c3)ccc2s1` (centres unmarked) [Example 76, N-[(cyclopropyl-carbamoyl)methyl]-2-[5-(2-fluoropyridin-4-yl)-1,3-benzothiazol-2-yl]-2-(2-methoxyethane-sulfonyl)acetamide], 32 nM.

These data come from patent US10173991B2, “Sulfone amide linked benzothiazole inhibitors of endothelial lipase” (BRISTOL-MYERS SQUIBB COMPANY, priority 2014, dated 2019).
